Results reported in article PMC9150124, “Design of a Potent, Selective, and Brain-Penetrant Inhibitor of Wnt-Deactivating Enzyme Notum by Optimization of a Crystallographic Fragment Hit” (Journal of Medicinal Chemistry, 2022).
pIC50: −log10 of the molar value. Converted amounts (≈) assume the structure as drawn. “And” between values parts separate entries of the source, which are not always exact repeats. Identical values can stand only once. Like-named read-outs stand apart in the source and are kept apart here.

How the values were obtained:
[1] = Stability in mouse liver microsomes; type: in vitro ADME; conditions: for half-life: mouse, liver microsomes, read-out: MLM Stability t1/2
CYP2C19 = CYP2C19 (Homo sapiens, UniProt P33261); assay: CYP450 inhibition in HLM
[2] = Metabolic stability in mouse hepatocytes
[3] = target: kinase named in conditions (Homo sapiens, UniProt P15056, V600E); assay: SelectScreen kinase profiling, SSBK LanthaScreen Binding SP Technology; conditions: BRAF V599E, 10 μM
[4] = target: kinase named in conditions (Homo sapiens, UniProt Q14004); assay: as above; conditions: read-out: % Inhibition mean
[5] = target: kinase named in conditions (Homo sapiens, UniProt Q9UPZ9); assay: as above; conditions: ICK, 10 μM
[6] = target: kinase named in conditions (Homo sapiens, UniProt P37023); assay: as above; conditions: ACVRL1 (ALK1), 10 μM
[7] = target: kinase named in conditions (Homo sapiens, UniProt P10721, D820E); assay: as above; conditions: KIT D820E, 10 μM
[8] = target: kinase named in conditions (Homo sapiens, UniProt Q92918); assay: as above; conditions: MAP4K1 (HPK1), 10 μM
[9] = target: kinase named in conditions (Homo sapiens, UniProt Q13705); assay: as above; conditions: ACVR2B, 10 μM
[10] = target: kinase named in conditions (Homo sapiens, UniProt Q9UEW8); assay: as above; conditions: STK39 (STLK3), 10 μM
[11] = target: kinase named in conditions (Homo sapiens, UniProt P10721, T670I/V559D); assay: as above; conditions: KIT V559D T670I, 10 μM
[12] = Brain tissue binding, rapid equilibrium dialysis; type: in vitro ADME, rat
Procedure: Method: rapid equilibrium dialysis.
Test System Mouse Brain Homogenate 10% w/v in PBS
Incubation Time 5 h (mouse) or 4 h (rat)
No. of Replicates Two (mouse) or three (rat)
Buffer Phosphate buffer saline, pH 7.4
% Unbound in brain % Bound in brain %
Compound Species / Matrix homogenate SD homogenate Recovery

MDR1 (P-gp) = assay: in vitro; conditions: dog
P-gp (MDR1) = assay: in vitro; conditions: dog
in vitro = conditions: dog
Wnt signaling = assay: TCF/LEF reporter (Luciferase) assay in the absence of Notum; type: cell-based; conditions: up to 10 μM; n = 4
Procedure: Figure S10. Notum TCF/LEF reporter (Luciferase) data with WNT3A (100 ng/mL) in the absence of Notum.
Examples are from different
Additional inhibition -concentration curves for compounds 6-9 will be made available upon reasonable request.

[13] = Aqueous solubility in PBS (pH 7.4); type: physicochemical
Description: Biosciences (Hyderabad, India) or WuXi AppTec (Shanghai, China).
Table S1: Representative assay protocol

[14] = MDCK-MDR1, MDCK-MDR1 AB Papp, apical to basal
[15] = MDCK-MDR1, MDCK-MDR1 BA Papp, basal to apical
[16] = Sprague–Dawley male rats, i.v. 1.0 mg/kg

CYP2C19, sequence (P33261 whole entry): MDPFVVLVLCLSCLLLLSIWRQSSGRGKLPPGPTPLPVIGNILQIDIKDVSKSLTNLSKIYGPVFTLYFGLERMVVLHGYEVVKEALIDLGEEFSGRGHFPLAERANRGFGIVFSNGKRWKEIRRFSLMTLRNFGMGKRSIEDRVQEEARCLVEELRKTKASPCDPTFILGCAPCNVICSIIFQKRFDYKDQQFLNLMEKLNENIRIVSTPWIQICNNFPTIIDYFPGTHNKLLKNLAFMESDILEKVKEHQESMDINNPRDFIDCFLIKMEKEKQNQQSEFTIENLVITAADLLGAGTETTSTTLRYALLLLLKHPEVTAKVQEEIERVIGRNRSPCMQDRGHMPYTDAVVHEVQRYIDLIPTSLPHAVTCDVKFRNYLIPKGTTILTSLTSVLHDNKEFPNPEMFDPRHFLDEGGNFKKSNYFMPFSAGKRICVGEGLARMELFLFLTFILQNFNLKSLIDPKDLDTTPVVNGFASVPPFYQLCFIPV
kinase named in conditions (Homo sapiens, UniProt Q92918), sequence (Q92918 whole entry): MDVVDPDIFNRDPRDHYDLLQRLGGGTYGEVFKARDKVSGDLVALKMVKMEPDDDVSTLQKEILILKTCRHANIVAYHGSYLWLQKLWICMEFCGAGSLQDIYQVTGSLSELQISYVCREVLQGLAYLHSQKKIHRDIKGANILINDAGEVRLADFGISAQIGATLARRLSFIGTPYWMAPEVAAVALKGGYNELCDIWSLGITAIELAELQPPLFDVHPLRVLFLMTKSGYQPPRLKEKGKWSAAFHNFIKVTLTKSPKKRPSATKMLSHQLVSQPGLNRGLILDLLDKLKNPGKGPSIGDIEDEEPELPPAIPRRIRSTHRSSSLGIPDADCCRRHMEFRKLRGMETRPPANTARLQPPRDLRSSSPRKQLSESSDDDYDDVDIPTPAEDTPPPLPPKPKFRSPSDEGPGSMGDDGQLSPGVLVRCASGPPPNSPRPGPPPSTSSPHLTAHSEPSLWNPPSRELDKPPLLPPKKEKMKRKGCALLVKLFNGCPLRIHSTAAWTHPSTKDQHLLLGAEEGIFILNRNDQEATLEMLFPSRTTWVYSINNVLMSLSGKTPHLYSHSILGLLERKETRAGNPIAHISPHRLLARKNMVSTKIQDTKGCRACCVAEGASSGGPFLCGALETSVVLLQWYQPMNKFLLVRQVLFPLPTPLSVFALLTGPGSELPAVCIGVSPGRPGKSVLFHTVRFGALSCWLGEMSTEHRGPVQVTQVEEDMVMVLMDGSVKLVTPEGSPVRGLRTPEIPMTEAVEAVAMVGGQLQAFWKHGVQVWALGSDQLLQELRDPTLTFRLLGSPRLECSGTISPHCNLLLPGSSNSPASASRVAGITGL
kinase named in conditions (Homo sapiens, UniProt P37023), sequence (P37023 22-503): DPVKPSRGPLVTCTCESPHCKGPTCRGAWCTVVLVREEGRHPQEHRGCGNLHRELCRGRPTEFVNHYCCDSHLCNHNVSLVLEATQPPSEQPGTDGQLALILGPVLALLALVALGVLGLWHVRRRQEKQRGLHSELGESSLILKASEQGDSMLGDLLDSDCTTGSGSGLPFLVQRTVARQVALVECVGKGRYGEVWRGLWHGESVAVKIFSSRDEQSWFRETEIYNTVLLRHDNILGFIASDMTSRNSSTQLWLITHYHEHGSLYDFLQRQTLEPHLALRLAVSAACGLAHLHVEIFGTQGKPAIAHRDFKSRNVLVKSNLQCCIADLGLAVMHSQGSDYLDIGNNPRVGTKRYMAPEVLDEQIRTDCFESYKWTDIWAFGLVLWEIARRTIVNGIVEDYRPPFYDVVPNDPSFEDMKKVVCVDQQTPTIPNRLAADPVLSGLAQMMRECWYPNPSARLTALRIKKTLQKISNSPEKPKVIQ
kinase named in conditions (Homo sapiens, UniProt P15056, V600E), sequence (P15056 whole entry V600E): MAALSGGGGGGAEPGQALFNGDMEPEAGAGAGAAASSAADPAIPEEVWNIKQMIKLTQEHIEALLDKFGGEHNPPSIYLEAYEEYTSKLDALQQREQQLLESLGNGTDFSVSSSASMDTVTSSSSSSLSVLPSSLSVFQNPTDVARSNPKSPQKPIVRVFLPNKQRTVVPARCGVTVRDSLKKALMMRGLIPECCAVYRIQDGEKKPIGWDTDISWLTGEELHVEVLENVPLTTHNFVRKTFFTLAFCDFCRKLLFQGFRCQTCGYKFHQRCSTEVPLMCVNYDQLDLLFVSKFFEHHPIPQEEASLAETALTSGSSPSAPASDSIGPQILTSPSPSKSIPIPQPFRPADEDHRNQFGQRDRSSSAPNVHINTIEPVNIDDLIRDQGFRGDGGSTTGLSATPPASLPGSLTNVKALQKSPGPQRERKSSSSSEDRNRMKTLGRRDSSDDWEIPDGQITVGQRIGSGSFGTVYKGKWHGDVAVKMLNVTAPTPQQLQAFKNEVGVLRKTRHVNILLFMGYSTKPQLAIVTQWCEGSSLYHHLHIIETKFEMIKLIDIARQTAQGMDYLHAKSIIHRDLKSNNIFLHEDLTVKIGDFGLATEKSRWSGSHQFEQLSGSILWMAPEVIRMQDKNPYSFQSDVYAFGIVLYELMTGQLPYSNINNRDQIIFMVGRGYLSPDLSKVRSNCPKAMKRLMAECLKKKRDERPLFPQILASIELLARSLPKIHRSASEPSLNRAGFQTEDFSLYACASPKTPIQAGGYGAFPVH
kinase named in conditions (Homo sapiens, UniProt Q9UPZ9), sequence (Q9UPZ9 whole entry): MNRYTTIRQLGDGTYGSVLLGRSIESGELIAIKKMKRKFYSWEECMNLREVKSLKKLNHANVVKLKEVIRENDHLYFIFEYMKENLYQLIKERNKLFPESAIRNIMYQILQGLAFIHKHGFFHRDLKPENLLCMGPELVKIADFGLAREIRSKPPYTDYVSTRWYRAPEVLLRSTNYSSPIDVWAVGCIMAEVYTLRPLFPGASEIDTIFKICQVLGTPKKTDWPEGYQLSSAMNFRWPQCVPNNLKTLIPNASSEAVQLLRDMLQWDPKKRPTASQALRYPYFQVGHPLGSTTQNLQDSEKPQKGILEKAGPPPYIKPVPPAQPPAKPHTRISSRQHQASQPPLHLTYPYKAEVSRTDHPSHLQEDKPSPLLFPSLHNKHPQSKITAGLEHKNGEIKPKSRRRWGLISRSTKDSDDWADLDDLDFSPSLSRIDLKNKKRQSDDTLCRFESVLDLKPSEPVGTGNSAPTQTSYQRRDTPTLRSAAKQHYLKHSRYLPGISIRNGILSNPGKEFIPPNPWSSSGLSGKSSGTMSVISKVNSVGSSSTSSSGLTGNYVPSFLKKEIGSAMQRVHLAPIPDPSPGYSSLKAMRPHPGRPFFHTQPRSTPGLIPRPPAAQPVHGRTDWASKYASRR
kinase named in conditions (Homo sapiens, UniProt P10721, T670I/V559D), sequence (P10721 26-976 V559D/T670I): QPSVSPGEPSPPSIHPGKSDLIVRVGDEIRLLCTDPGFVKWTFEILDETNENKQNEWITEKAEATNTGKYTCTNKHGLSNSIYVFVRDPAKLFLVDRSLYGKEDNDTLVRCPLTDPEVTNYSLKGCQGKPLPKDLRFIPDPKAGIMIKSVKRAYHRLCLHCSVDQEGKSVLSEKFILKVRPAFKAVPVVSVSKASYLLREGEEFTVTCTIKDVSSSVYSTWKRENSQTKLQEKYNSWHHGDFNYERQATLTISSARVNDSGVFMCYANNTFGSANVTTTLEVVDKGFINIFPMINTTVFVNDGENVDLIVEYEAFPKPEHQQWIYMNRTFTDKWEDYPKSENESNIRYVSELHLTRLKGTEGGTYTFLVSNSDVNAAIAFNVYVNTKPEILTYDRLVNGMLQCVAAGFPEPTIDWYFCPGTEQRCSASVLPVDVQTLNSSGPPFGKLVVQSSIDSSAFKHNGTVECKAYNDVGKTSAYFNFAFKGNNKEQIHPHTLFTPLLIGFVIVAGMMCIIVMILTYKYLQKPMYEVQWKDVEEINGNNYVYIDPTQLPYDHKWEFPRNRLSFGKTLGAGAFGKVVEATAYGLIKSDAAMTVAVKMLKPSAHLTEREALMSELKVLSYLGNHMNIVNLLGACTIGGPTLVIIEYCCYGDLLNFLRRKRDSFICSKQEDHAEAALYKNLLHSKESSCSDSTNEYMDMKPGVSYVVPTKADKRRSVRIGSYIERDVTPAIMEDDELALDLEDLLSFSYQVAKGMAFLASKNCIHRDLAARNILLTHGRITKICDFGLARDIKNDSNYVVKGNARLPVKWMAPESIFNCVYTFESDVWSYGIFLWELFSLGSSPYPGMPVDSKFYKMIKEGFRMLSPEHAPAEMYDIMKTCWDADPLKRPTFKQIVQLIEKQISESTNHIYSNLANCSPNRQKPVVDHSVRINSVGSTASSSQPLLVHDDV
kinase named in conditions (Homo sapiens, UniProt P10721, D820E), sequence (P10721 26-976 D820E): as the sequence (P10721 26-976 V559D/T670I) above, with D534V, I645T, D795E counted along it
kinase named in conditions (Homo sapiens, UniProt Q13705), sequence (Q13705 19-512): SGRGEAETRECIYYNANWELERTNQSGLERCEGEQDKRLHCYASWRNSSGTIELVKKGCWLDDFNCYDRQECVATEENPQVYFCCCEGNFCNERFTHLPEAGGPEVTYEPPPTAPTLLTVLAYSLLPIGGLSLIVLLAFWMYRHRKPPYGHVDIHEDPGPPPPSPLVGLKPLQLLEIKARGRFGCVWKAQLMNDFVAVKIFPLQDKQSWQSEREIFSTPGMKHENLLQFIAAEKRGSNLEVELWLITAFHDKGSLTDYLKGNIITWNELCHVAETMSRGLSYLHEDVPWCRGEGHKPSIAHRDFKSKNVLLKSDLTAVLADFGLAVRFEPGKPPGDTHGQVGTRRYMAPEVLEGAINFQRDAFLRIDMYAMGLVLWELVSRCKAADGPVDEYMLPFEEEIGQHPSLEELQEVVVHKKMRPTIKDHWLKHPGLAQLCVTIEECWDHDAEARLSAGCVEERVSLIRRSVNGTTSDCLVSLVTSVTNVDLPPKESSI

FC(F)(F)c1c(Cl)ccc(-n2ccnn2)c1Cl [8l, 1-(2,4-Dichloro-3-(trifluoromethyl)phenyl)-1H-1,2,3-triazole]
MLM Cli [1]: 3.2 μL/min/mg protein | Liver microsome stability Cli, MLM ([1]; additional study (Table 5)): 11.7 μL/min/mg protein | half-life ([1]; Table S4): 2 h | half-life ([1]; Table S8): 1.97 h | pIC50 (CYP2C19): 5.14 | pIC50 (CYP2C19; read-out: CYP inhibition IC50, 2C19, HLM): 5.09 | pIC50 (CYP2C19; read-out: IC50 CYP2C19/S-Mephenytoin, (+)NADPH pre-incubation): 5.09 | mouse hepatocytes Cli [2]: 19.4 μL/min/10^6 cells | half-life ([2]; mouse, hepatocytes): 1.23 h | inhibition at 10 µM [3]: 0% | inhibition at 10 µM [4]: 38% | inhibition at 10 µM [5]: -6% | inhibition at 10 µM [6]: 12% | inhibition at 10 µM [7]: -4% | inhibition at 10 µM [8]: 15% | inhibition at 10 µM [9]: 1% | inhibition at 10 µM [10]: 13% | inhibition at 10 µM [11]: -3% | fraction unbound at 4 h, 2 µM ([12]; brain homogenate, pH 7.4, SD rat, 4 h): 0.029 | recovery at 4 h, 2 µM ([12]; pH 7.4, SD rat brain homogenate): 86.8% | Brain binding, % bound ([12]; rat brain homogenate): 97.1% | recovery (MDR1 (P-gp); MDCK-MDR1, MDR1-MDCKII A to B % Recovery): 85.1% | recovery (MDR1 (P-gp); MDCK-MDR1, MDR1-MDCKII B to A % Recovery): 90.5% | Papp (P-gp (MDR1); [14]): 31.4 ×10⁻⁶ cm/s | Papp (P-gp (MDR1); [15]): 39.2 ×10⁻⁶ cm/s | Papp (in vitro; [14]): 31 ×10⁻⁶ cm/s | Papp (in vitro; [15]): 39 ×10⁻⁶ cm/s | CL [16]: 7.5 mL/min/kg | Vdss [16]: 2.0 L/kg | t1/2 [16]: 3.3 h | Fo (rat, p.o. 10 mg/kg): 140% | AUC0–inf (rat, p.o. 10 mg/kg, brain): 46 100 ng·h/g | Tmax (rat, p.o. 10 mg/kg, brain): 0.5 h | t1/2 (rat, p.o. 10 mg/kg, brain): 8.9 h | AUC0–inf (rat, p.o. 10 mg/kg, plasma): 32 000 ng·h/mL | Tmax (rat, p.o. 10 mg/kg, plasma): 4.0 h | t1/2 (rat, p.o. 10 mg/kg, plasma): 4.7 h | Wnt response in the absence of Notum (Wnt signaling): maximal Wnt response at all concentrations tested | solubility ([13]; PBS pH 7.4, read-out: aq. solubility): 68 µg/mL and 240 µM | solubility thermodynamic ([13]; PBS, pH 7.4, n = 2, read-out: Thermodynamic Solubility @ RT, mean): 68 µg/mL (≈ 241 µM)
